Drawing on the supplement of paper PMC10307832, this text covers relative viability for five cell lines.

What all share (assay): relative viability (nuclei count vs DMSO), 5 days (fraction); higher = more cells survive
Compound in assay [1]: C1CNCCC1C2=CC(=NN2)C3=CC=NC=C3 + COc1cccc2cc(-c3nc([C@H]4CC[C@H](C(=O)O)CC4)n4ncnc(N)c34)[nH]c12 [OSI-027] (partner 0.5 µM)
In a few lines:
(§1)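 Each reported value is a median over duplicate plates. It expresses relative viability: treated-well nuclei count divided by vehicle-well nuclei count. Lung cancer cell lines in 1536-well plates were dosed by pin tool a day after seeding, alone with one drug or with a fixed anchor-drug dose plus five library-drug doses (not always all listed) in √10 steps, and nuclei were counted after 5 days.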

Compound in assay [2]: C1CNCCC1C2=CC(=NN2)C3=CC=NC=C3 + Nc1nc2[nH]cc(CCc3ccc(C(=O)N[C@@H](CCC(=O)O)C(=O)O)cc3)c2c(=O)[nH]1 [Pemetrexed] (partner 0.2 µM)
Summed up:
as §1

Compound in assay [3]: C1CNCCC1C2=CC(=NN2)C3=CC=NC=C3 + O=C(CCCCCCC(=O)Nc1ccccc1)NO [Vorinostat] (partner 1 µM)
Summed up:
as §1

Compound in assay [4]: C[C@@H](N)c1ccc(C(=O)Nc2ccnc3[nH]ccc23)cc1 + CS(=O)(=O)N1CCN(Cc2cc3nc(-c4cccc5[nH]ncc45)nc(N4CCOCC4)c3s2)CC1 [Pictilisib] (partner 1 µM)
In a few lines:
as §1

NCI-H358: the relative viability came to 0.593 in assay [1] (first compound 0.08 µM); 0.713 in assay [1] (first compound 0.8 µM); 0.834 in assay [1] (first compound 2.53 µM); 0.698 in assay [1] (first compound 8 µM); 0.181 in assay [2] (first compound 0.08 µM); 0.176 in assay [2] (first compound 0.8 µM). In addition, the relative viability was found to be 0.178 in assay [2] (first compound 2.53 µM); 0.157 in assay [2] (first compound 8 µM); 0.492 in assay [3] (first compound 0.08 µM); 0.654 in assay [3] (first compound 0.8 µM); 0.907 in assay [3] (first compound 2.53 µM); 0.617 in assay [3] (first compound 8 µM). The relative viability in assay [4] (first compound 0.04 µM) worked out at 0.339; in assay [4] (first compound 0.1265 µM) it was 0.31; in assay [4] (first compound 0.4 µM), 0.33; in assay [4] (first compound 1.265 µM) it was 0.289; in assay [4] (first compound 4 µM), 0.326.

NCI-H441: the relative viability in assay [1] (first compound 0.08 µM) was determined as 0.536; in assay [1] (first compound 0.8 µM), 0.769; in assay [1] (first compound 2.53 µM), 0.736; in assay [1] (first compound 8 µM) it was 0.867; in assay [2] (first compound 0.08 µM), 0.264; in assay [2] (first compound 0.8 µM), 0.251. The relative viability in assay [2] (first compound 2.53 µM) is 0.247; in assay [2] (first compound 8 µM) it was 0.243; in assay [3] (first compound 0.08 µM) it was 0.593; in assay [3] (first compound 0.8 µM), 0.944; in assay [3] (first compound 2.53 µM) it was 0.783; in assay [3] (first compound 8 µM), 0.77. Further, the relative viability was 0.549 in assay [4] (first compound 0.04 µM); 0.569 in assay [4] (first compound 0.1265 µM); 0.553 in assay [4] (first compound 0.4 µM); 0.4 in assay [4] (first compound 1.265 µM); 0.458 in assay [4] (first compound 4 µM).

Turning to NCI-H460, the relative viability in assay [1] (first compound 0.08 µM) stood at 0.496; in assay [1] (first compound 0.8 µM), 0.833; in assay [1] (first compound 2.53 µM) it was 0.775; in assay [1] (first compound 8 µM), 0.676; in assay [2] (first compound 0.08 µM) it was 0.0816; in assay [2] (first compound 0.8 µM) it was 0.066. Further, the relative viability was found to be 0.0652 in assay [2] (first compound 2.53 µM); 0.0683 in assay [2] (first compound 8 µM); 0.484 in assay [3] (first compound 0.08 µM); 1.01 in assay [3] (first compound 0.8 µM); 0.787 in assay [3] (first compound 2.53 µM); 0.683 in assay [3] (first compound 8 µM). Also, the relative viability in assay [4] (first compound 0.04 µM) is 0.467; in assay [4] (first compound 0.1265 µM), 0.252; in assay [4] (first compound 0.4 µM), 0.489; in assay [4] (first compound 1.265 µM) it was 0.0436; in assay [4] (first compound 4 µM), 0.372.

For the cell line NCI-H520, the relative viability in assay [1] (first compound 0.08 µM) is 0.247; in assay [1] (first compound 0.8 µM), 0.2; in assay [1] (first compound 2.53 µM) it was 0.236; in assay [1] (first compound 8 µM), 0.311; in assay [2] (first compound 0.08 µM), 0.652; in assay [2] (first compound 0.8 µM), 0.743. The relative viability worked out at 0.637 in assay [2] (first compound 2.53 µM); 0.517 in assay [2] (first compound 8 µM); 0.677 in assay [3] (first compound 0.08 µM); 0.777 in assay [3] (first compound 0.8 µM); 0.746 in assay [3] (first compound 2.53 µM); 0.7 in assay [3] (first compound 8 µM). Also, the relative viability was found to be 0.33 in assay [4] (first compound 0.04 µM); 0.301 in assay [4] (first compound 0.1265 µM); 0.29 in assay [4] (first compound 0.4 µM); 0.396 in assay [4] (first compound 1.265 µM); 0.504 in assay [4] (first compound 4 µM).

Turning to NCI-H522, the relative viability in assay [1] (first compound 0.08 µM) amounted to 0.731; in assay [1] (first compound 0.8 µM) it was 0.813; in assay [1] (first compound 2.53 µM), 0.693; in assay [1] (first compound 8 µM), 0.709; in assay [2] (first compound 0.08 µM), 0.844; in assay [2] (first compound 0.8 µM) it was 1.13. Also, the relative viability in assay [2] (first compound 2.53 µM) came out at 0.934; in assay [2] (first compound 8 µM), 1.26; in assay [3] (first compound 0.08 µM), 0.911; in assay [3] (first compound 0.8 µM), 0.762; in assay [3] (first compound 2.53 µM), 0.998; in assay [3] (first compound 8 µM) it was 1.04.
